From US20090124650A1 (priority 2007, published 2009)

Columns and labels:
[1] = Study 5: controlled release 40 mg vs immediate release 4x10 mg, fed and fasting; type: in vivo, human; conditions: food effect
Excerpt: Subjects randomized to Treatment 5A and Treatment 5C, as described below, were in a fasted state following a 10-hour overnight fast. […] There was a 14-day washout interval between the four dose administrations. The subjects were confined to the clinic during each study period. Subject assigned to receive Treatment 5A and Treatment 5B were discharged from the clinic on Day 3 following the 48-hour procedures, and subjects assigned to receive Treatment 5C and Treatment 5D were discharged from the clinic on Day 2 following the 36-hour procedures. On Day 1 of each study period the subjects received one of four treatments:
Blood samples (7 ml) were collected during each study period at the 0 hour (predose), and at 0.25, 0.5, 0.75, 1.0, 1.5, 2, 3, 4, 5, 6, 8, 10, 12, 24, 36, 48, 60, and 72 hours post-dose (19 samples) for subjects randomized to all Treatments.

[2] = In vivo ethanol study: oxymorphone 40 mg ER tablets with 240 mL of 40%, 20%, 4%, 0% ethanol; design: species or system human
Experimental: The study design was a randomized, open-label, single-dose, four-period crossover in 28 subjects. […] Subjects were fasted overnight for at least 8 hours prior to dosing. Water was allowed ad lib except from 1 hour before dosing until 1 hour after dosing. A standardized meal was served 4 hours and 10 hours after dosing.
A) 40% ethanol B) 20% ethanol C) 4% ethanol D) 0% ethanol
Serial blood samples were obtained from 0 to 48 hours after dosing. Plasma samples were assayed for oxymorphone. Pharmacokinetic parameters for oxymorphone were determined using non-compartmental methods. […] Any treatment in which a subject vomited during the dosing interval (0-12 hours) was excluded from the primary pharmacokinetic analysis.

[3] = in vivo; cited from earlier work
[4] = Bioavailability in elderly, hepatically and renally impaired patients
[5] = elderly patients (65 years old or older)

CN1CC[C@]23c4c5ccc(O)c4O[C@H]2C(=O)CC[C@@]3(O)[C@H]1C5 [oxymorphone, 14-hydroxydihydromorphinone]
Cmax greater with a meal than without [1]: 50%
AUC change with ethanol ([2]; 240 mL of 20% or 4% ethanol concomitantly): essentially unchanged
Cmax increase in individual subjects, up to ([2]; 240 mL of 40% ethanol): up to 270%
AUC change with ethanol ([2]; 240 mL of 40% ethanol concomitantly): not statistically significantly changed
Cmax increase (average) vs 0% ethanol ([2]; 240 mL of 40% ethanol, excluding subjects who vomited): 70%
oral bioavailability [3]: about 10%
increase in Cmax [4, 5]: about 1.5 fold
increase in bioavailability [4, 5]: about 1.4 fold
bioavailability ([4]; hepatically impaired patients): increased
bioavailability ([4]; renally impaired patients): increased
